Legend:
[1] = tested on: writhes produced by intraperitoneal acetic acid in CD-1 mice; test: acetic acid writhing test; format: in vivo, CD-1 mice (Charles-River); settings: oral; for ED50: Mus musculus, 25 min, 0.4% acetic acid i.p. 25 minutes later
Protocol: (§1) Analgesic activity was measured in CD-1 mice (Charles-River) on the basis of the following three methods:
(§2) The third method consists in measuring the number of writhes performed by a mouse as a manifestation of the pain produced by an intraperitoneal injection of 10 mL/kg of 0.4% acetic acid solution. […] Following oral administration of each compound, the mice (groups of 8 or more) received, 25 minutes later, an intraperitoneal injection of 10 mL/kg of 0.4% acetic acid. The number of writhes was counted 5-15 minutes after the injection of acetic acid.

[2] = tested on: pain response (tail flick) in CD-1 mice; test: tail flick analgesic test; format: in vivo, CD-1 mice (Charles-River); settings: for analgesic activity in tail flick test: mice, oral
Protocol: as §1
In the tail flick method (D'Amour, F. E., Smith, D. L., J. Pharmacol. Exp. Ther. 72, 74, 1941), the tail of each mouse is exposed to a concentrated light beam; when the animal feels pain, it removes its tail abruptly from said beam, and the latency time of this flick response is measured. The compound indicated by each symbol was administered orally to groups of 10 mice at the doses indicated as abscissae. The analgesia was quantified before and 15, 30, 60 and 120 minutes after the administration of each compound. The peak activity (30 minutes) was plotted as the percentage of mice in which the latency time for flicking the tail was at least doubled.

[3] = tested on: pain response (hotplate) in CD-1 mice; test: hotplate analgesic test; format: in vivo, CD-1 mice (Charles-River); settings: for analgesic activity in hotplate test (words): mice, oral
Protocol: as §1
The second method employed is the hotplate method (Wolfe, G. and MacDonald, A. D., J. Pharmacol. Exp. Ther. 80, 300, 1944). The mouse is placed on a plate at 54° C., and the latency time of withdrawal of a hind foot or a jump is measured. Groups of 10 mice, to which the compounds were administered orally at the doses indicated as abscissae, were subjected to the hotplate test before and at the end of 30 and 60 minutes following administration of the compounds. The mean latency at 30 and 60 minutes minus the baseline latency is plotted as ordinates.

[4] = tested on: yeast-induced pyretic response in Sprague-Dawley rats; test: antipyretic activity (yeast-induced temperature increase); format: in vivo; settings: oral; for antipyretic effect: at the doses studied
Protocol: Antipyretic activity was determined in Sprague-Dawley rats weighing 130-220 g. The animals were injected subcutaneously with a 15% suspension of yeast dissolved in saline solution (1 mL/100 g body weight). Body temperature was measured by means of a rectal thermistor connected to a Cole-Palmer remote thermometer. The temperature at which the experiment was started was the temperature determined 2 hours after the administration of yeasts. Temperature measurements were subsequently made in animals to which paracetamol (standard) or the test compound was administered orally (Suspension K, Bioserve). The results, expressed as the percentage increase in temperature from the baseline value to that obtained 6 hours after the subcutaneous administration of yeast, are given in FIG. 4.

[5] = tested on: pain response in CD-1 mice; test: overall analgesic activity (tail flick, hotplate and acetic acid tests); format: in vivo, CD-1 mice (Charles-River); settings: oral
Protocol: as §1, §2

[6] = tested on: plasma GPT and GOT transaminase levels; settings: mouse, in vivo
Protocol: (§3) Toxicity studies were based on the measurement of two parameters: mortality and hepatotoxicity.
(§4) For the hepatotoxicity study, mice were kept fasted overnight. The following morning, the compounds were administered orally under ether anesthesia. […] Paracetamol was dissolved in 0.5% tragacanth in saline solution. 24 hours after administration of the compounds, blood was withdrawn from the orbital plexus of the mice anesthetized with ether, and placed in heparinized capillary tubes. The samples were centrifuged at 2000 rpm for 10 minutes, and the plasma glutamic-oxaloacetic transaminase (GOT) and glutamicpyruvic transaminase (GPT) levels were determined spectrophotometrically using Sigma kits. The number of animals used in each group is indicated within each column.

mice = test: mortality after oral administration; settings: summary statement
Protocol: as §3
Mortality was determined by means of the oral administration of 1 g/kg of paracetamol or the test compound (in Suspension K, Bioserve). For this purpose, the number of mice surviving 18 hours after the administration of each compound was counted.

[7] = solubility remark in hepatotoxicity study; format: physicochemical
Protocol: as §4

Compound	ED50 [1] [mg/kg]	analgesic activity in acetic acid test [1]	analgesic activity in tail flick test [2]	analgesic activity in hotplate test (words) [3]	analgesic activity in hotplate test (words) ([3]; listed as paracetamol)	ED50 ([4]; Rattus norvegicus, yeast s.c., read-out: ED50, reduction of pyretic response) [mg/kg]	antipyretic effect [4]	ED50 ([2]; Mus musculus, po, read-out: ED50, tail flick test) [mg/kg]	ED50 ([3]; Mus musculus, po, read-out: ED50, hotplate test) [mg/kg]	analgesic profile / analgesic activity [5]	analgesic profile / analgesic activity ([5]; listed as Example I)	hepatotoxicity [6]	toxicity compared with paracetamol (mice)	antipyretic effect ([4]; listed as Example I)	solubility [7]
CC(=O)Nc1ccc(O)cc1 [Paracetamol]	130	effective	did not display activity	minimally active	did not display activity	77.7	reduced the pyretic response in a dose-dependent manner	–	–	–	–	–	–	–	–
CN1CC[C@]23c4c5ccc(O)c4O[C@H]2[C@@H](O)C=C[C@H]3[C@H]1C5 [Morphine]	–	active	active	active	–	–	–	28.5	22.3	–	–	–	–	–	–
O=C(CN1C(=O)c2ccccc2S1(=O)=O)Nc1ccc(O)cc1 [Example 1, 2-[2,3-Dihydro-3-oxo-1,2-benzisothiazol-2-yl 1,1-dioxide]-N-(4-hydroxyphenyl)acetamide]	121	displayed an analgesic effect	did not display activity	did not display activity	–	–	did not display antipyretic effects	–	–	analgesic profile identical to that of paracetamol	analgesic activity equivalent to that of paracetamol	lacks hepatotoxicity	much lower toxicity	not possessing antipyretic effects	poor solubility

From patent publication US5554636A, “N-acylated 4-hydroxphenylamine derivatives with analgesic properties and pharmaceutical compositions containing them” (priority 1995, dated 1996)
